As a reminder, the solubility is the concentration that dissolves in the medium under given conditions.

We go through 5 compounds from patent US7714173B2, “Method for purifying terephthalaldehyde” (LG Chem, Ltd., priority 2006, dated 2010).

Data set [1] is described as follows: Solubility of terephthalaldehyde and major impurities in water and dimethylsulfoxide. Particulars: solvent H2O, measured at 25° C.
Data set [2] in a line: Stability of terephthalaldehyde in the dissolving solvent. The class given is physicochemical. An excerpt:
In a method for purifying terephthalaldehyde which comprises dissolving crude terephthalaldehyde in a solvent and then re-crystallizing the solution, using an anti-solvent, the present invention is characterized by using dimethylsulfoxide as the solvent. In the method for purifying terephthalaldehyde according to the present invention, usual alcohols or ethers may be used as a solvent dissolving terephthalaldehyde. However, dimethylsulfoxide according to the present invention has more excellent solubility of terephthalaldehyde and major impurities than those of the alcohols or the ethers, and may prepare terephthalaldehyde in a higher yield and purity.

Setting [3] is: 25 °C, organic solvent or mixture.

Values after ≈ are worked out from the molar mass of the structure shown.

In the case of `Oc1ccc(O)cc1` [HQ, hydroquinone], the solubility in “physchem” (setting [3]) is 1000 mg/mL (≈ 9080 mM); in the data set “physchem” (25 °C, water), 20 mg/mL (≈ 182 mM).

`O=C(O)c1ccc(C(=O)O)cc1` [TPA, terphthalic acid]: the “Solubility in H2O” value in data set [1] was less than 1.67 mg/mL. Regarding `O=Cc1ccc(C(=O)O)cc1` [4-CBA, 4-carboxybenzaldehyde], the solubility in the data set “physchem” (dimethylsulfoxide (DMSO), 25 °C, organic solvent or mixture) was 1000 mg/mL (≈ 6660 mM); in the data set “physchem” (water, 25 °C) it was less than 1.67 mg/mL. Turning to `O=Cc1ccc(O)cc1` [4-HBA, 4-hydroxybenzaldehyde], the solubility came out at 1000 mg/mL (≈ 8190 mM) in the data set “physchem” (setting [3]) and 2.5 mg/mL (≈ 20.5 mM) in the data set “physchem” (25 °C, water). For `O=Cc1ccc(C=O)cc1` [terephthalaldehyde], the “Stability in alcohols such as methanol” value in data set [2] (alcohols such as methanol as solvent) is on record as “changed into a material such as acetal”. In addition, in data set [2] (dimethylsulfoxide as solvent), the Stability in dimethylsulfoxide result was “such change is not occurred”.
